Series [1] has as its system HBV replication in HepAD38 cells. As to the kind of experiment: Anti-HBV replication assay in HepAD38 cells (QPCR of extracellular HBV DNA). The conditions noted are these: Hepatitis B virus, 168 h, 7 days incubation, extracellular HBV DNA by QPCR, read-out: Anti-HBV EC50. Type of series: cell-based, HBV (genotype D, serotype ayw). The gist of the method:
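Read-out is QPCR of HBV DNA released into culture supernatant, converted to percent of vehicle control and fitted to give EC50. Cells were HepAD38 induced by tetracycline removal and dosed […] for 7 days.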

The nature of series [2]: In vitro cytotoxicity assay (MTT cell viability) in HepG2 cells. Type of series: cell-based, human. The settings on record: human. The gist of the method:
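HepG2 cells incubated 7 days at 37 °C, 5% CO2 with compounds from 30 μM to 1.0 nM (8 half-log dilutions). Viability read as MTT formazan absorbance at 492 nm, normalised to vehicle controls; CC50 from 4-parameter non-linear regression.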

pEC50: −log10 of the molar value.

In general, pEC50 refers to −log10 of the EC50, conventionally taken in molar units. A word on the CC50: it is the concentration at which the toxic effect on the cells reaches its halfway point. A higher CC50 goes with better tolerance by the cells.

With `Cc1cc(NC(=O)c2c(C)c(C(=O)C(=O)NCC(=O)N3CCOCC3)n(C)c2C)ccc1F` [Example 299, N-(4-fluoro-3-methylphenyl)-1,2,4-trimethyl-5-(2-((2-morpholino-2-oxoethyl)amino)-2-oxoacetyl)-1H-pyrrole-3-carboxamide], the pEC50 in series [1] is 6.30 to 7.30. Further, in series [2], the CC50 at 7 days was above 30 µM.

For `Cc1cc(NC(=O)c2c(C)c(C(=O)C(=O)NCCN3CCNC(=O)C3)n(C)c2C)ccc1F` [Example 300, N-(4-fluoro-3-methylphenyl)-1,2,4-trimethyl-5-(2-oxo-2-((2-(3-oxopiperazin-1-yl)ethyl)amino)acetyl)-1H-pyrrole-3-carboxamide], the pEC50 in series [1] was 6.30 to 7.30. In series [2], this molecule came in with a CC50 at 7 days above 30 µM.

For the molecule `Cc1cc(NC(=O)c2c(C)c(C(=O)C(=O)NCCCN3CCOCC3)n(C)c2C)ccc1F` [Example 301, N-(4-fluoro-3-methylphenyl)-1,2,4-trimethyl-5-(2-((3-morpholinopropyl)amino)-2-oxoacetyl)-1H-pyrrole-3-carboxamide], the pEC50 in series [1] was above 7.30. Moreover, in series [2], the CC50 at 7 days was above 30 µM.

As for `Cc1cc(NC(=O)c2c(C)c(C(=O)C(=O)N[C@H]3C[C@@H](O)C3(C)C)n(C)c2C)ccc1F` [Example 302, N-(4-fluoro-3-methylphenyl)-5-(2-(((1S,3R)-3-hydroxy-2,2-dimethylcyclobutyl)amino)-2-oxoacetyl)-1,2,4-trimethyl-1H-pyrrole-3-carboxamide], the pEC50 in series [1] is above 7.30. This molecule also yielded a CC50 at 7 days in series [2] above 30 µM.

With `Cc1cc(NC(=O)c2c(C)c(C(=O)C(=O)NC3(C(=O)NC(C)C)CCOCC3)n(C)c2C)ccc1F` [Example 303, N-(4-fluoro-3-methylphenyl)-5-(2-((4-(isopropylcarbamoyl)tetrahydro-2H-pyran-4-yl)amino)-2-oxoacetyl)-1,2,4-trimethyl-1H-pyrrole-3-carboxamide], in series [1], the pEC50 is above 7.30. Also, the CC50 at 7 days in series [2] was above 30 µM.

Regarding `Cc1cc(NC(=O)C(=O)c2c(C)c(C(=O)Nc3ccc(F)c(C)c3)c(C)n2C)on1` [Example 304, N-(4-fluoro-3-methylphenyl)-1,2,4-trimethyl-5-(2-((3-methylisoxazol-5-yl)amino)-2-oxoacetyl)-1H-pyrrole-3-carboxamide], in series [1], the pEC50 is above 7.30. The molecule further yielded a CC50 at 7 days in series [2] of 5 to 30 µM.

On to `Cc1nnc(NC(=O)C(=O)c2c(C)c(C(=O)Nc3ccc(F)c(C)c3)c(C)n2C)o1` [Example 305, N-(4-fluoro-3-methylphenyl)-1,2,4-trimethyl-5-(2-((5-methyl-1,3,4-oxadiazol-2-yl)amino)-2-oxoacetyl)-1H-pyrrole-3-carboxamide], for which the pEC50 in series [1] is below 6.00. In addition, the CC50 at 7 days in series [2] is above 30 µM.

In the case of `Cc1cc(NC(=O)c2c(C)c(C(=O)C(=O)Nc3ccn(C)n3)n(C)c2C)ccc1F` [Example 306, N-(4-fluoro-3-methylphenyl)-1,2,4-trimethyl-5-(2-((1-methyl-1H-pyrazol-3-yl)amino)-2-oxoacetyl)-1H-pyrrole-3-carboxamide], in series [1], the pEC50 was above 7.30. In addition, in series [2], the CC50 at 7 days is above 30 µM.

As to `Cc1cc(NC(=O)c2c(C)c(C(=O)C(=O)Nc3ccn(CCO)n3)n(C)c2C)ccc1F` [Example 307, N-(4-fluoro-3-methylphenyl)-5-(2-((1-(2-hydroxyethyl)-1H-pyrazol-3-yl)amino)-2-oxoacetyl)-1,2,4-trimethyl-1H-pyrrole-3-carboxamide], the pEC50 in series [1] was above 7.30. Further, the CC50 at 7 days in series [2] was above 30 µM.

Turning to `Cc1cc(NC(=O)c2c(C)c(C(=O)C(=O)Nc3nc(CO)cs3)n(C)c2C)ccc1F` [Example 308, N-(4-fluoro-3-methylphenyl)-5-(2-((4-(hydroxymethyl)thiazol-2-yl)amino)-2-oxoacetyl)-1,2,4-trimethyl-1H-pyrrole-3-carboxamide], the pEC50 in series [1] is 6.00 to 6.30. Also, the CC50 at 7 days in series [2] is above 30 µM.

Turning to `Cc1c(C(=O)Nc2ccc(F)c(Cl)c2)c(C)n(C)c1C(=O)C(=O)Nc1ccccn1` [Example 309, N-(3-chloro-4-fluorophenyl)-1,2,4-trimethyl-5-(2-oxo-2-(pyridin-2-ylamino)acetyl)-1H-pyrrole-3-carboxamide], the pEC50 in series [1] was 6.30 to 7.30. Moreover, the CC50 at 7 days in series [2] is above 30 µM.

On to `Cc1c(C(=O)Nc2ccc(F)c(Cl)c2)c(C)n(C)c1C(=O)C(=O)Nc1cccnc1` [Example 311, N-(3-chloro-4-fluorophenyl)-1,2,4-trimethyl-5-(22-oxo-2-(pyridin-3-ylamino)acetyl)-1H-pyrrole-3-carboxamide], for which, in series [1], the pEC50 is above 7.30. The CC50 at 7 days in series [2] is above 30 µM.

Regarding `Cc1c(C(=O)Nc2ccc(F)c(Cl)c2)c(C)n(C)c1C(=O)C(=O)Nc1ccc(F)nc1` [Example 312, N-(3-chloro-4-fluorophenyl)-5-(2-((6-fluoropyridin-3-yl)amino)-2-oxoacetyl)-1,2,4-trimethyl-1H-pyrrole-3-carboxamide], the pEC50 in series [1] is above 7.30. Moreover, the CC50 at 7 days in series [2] lay within 5 to 30 µM.

On to `Cc1c(C(=O)Nc2ccc(F)c(Cl)c2)c(C)n(C)c1C(=O)C(=O)Nc1ccc(F)c(F)c1` [Example 313], for which the pEC50 in series [1] is above 7.30. In addition, the CC50 at 7 days in series [2] is 5 to 30 µM.

Consider `Cc1c(C(=O)Nc2ccc(F)c(Cl)c2)c(C)n(C)c1C(=O)C(=O)NC1CCC(F)(F)CC1` [Example 314, N-(3-chloro-4-fluorophenyl)-5-(2-((4,4-difluorocyclohexyl)amino)-2-oxoacetyl)-1,2,4-trimethyl-1H-pyrrole-3-carboxamide], for which the pEC50 in series [1] was above 7.30. In addition, the 50% cytotoxic concentration (CC50) at 7 days in series [2] lay within 5 to 30 µM.

As to `Cc1csc(NC(=O)C(=O)c2c(C)c(C(=O)Nc3ccc(F)c(F)c3)c(C)n2C)n1` [Example 315, N-(3,4-difluorophenyl)-1,2,4-trimethyl-5-(2-((4-methylthiazol-2-yl)amino)-2-oxoacetyl)-1H-pyrrole-3-carboxamide], in series [1], the negative logarithm of the EC50 (pEC50) was above 7.30. In addition, the CC50 at 7 days in series [2] is above 30 µM.

Take `Cc1csc(NC(=O)C(=O)c2c(C)c(C(=O)Nc3ccc(F)c(Cl)c3)c(C)n2C)n1` [Example 316, N-(3-chloro-4-fluorophenyl)-1,2,4-trimethyl-5-(2-((4-methylthiazol-2-yl)amino)-2-oxoacetyl)-1H-pyrrole-3-carboxamide]: in series [1], the pEC50 was above 7.30. The molecule further yielded a CC50 at 7 days in series [2] above 30 µM.

On to `Cc1cc(NC(=O)c2c(C)c(C(=O)C(=O)Nc3ncc(C(F)(F)F)s3)n(C)c2C)ccc1F` [Example 317, N-(4-fluoro-3-methylphenyl)-1,2,4-trimethyl-5-(2-oxo-2-((5-(trifluoromethyl)thiazol-2-yl)amino)acetyl)-1H-pyrrole-3-carboxamide], for which the pEC50 in series [1] is below 6.00. The molecule further returned a CC50 at 7 days in series [2] of 5 to 30 µM.

With `Cc1c(C(=O)Nc2cc(F)c(F)c(F)c2)c(C)n(C)c1C(=O)C(=O)Nc1ccccn1` [Example 318, 1,2,4-trimethyl-5-(2-oxo-2-(pyridin-2-ylamino)acetyl)-N-(3,4,5-trifluorophenyl)-1H-pyrrole-3-carboxamide], the pEC50 in series [1] is 6.30 to 7.30. Besides, the CC50 at 7 days in series [2] was above 30 µM.

Take `Cc1c(C(=O)Nc2cc(F)c(F)c(F)c2)c(C)n(C)c1C(=O)C(=O)Nc1ccc(F)cn1` [Example 319, 5-(2-((5-fluoropyridin-2-yl)amino)-2-oxoacetyl)-1,2,4-trimethyl-N-(3,4,5-trifluorophenyl)-1H-pyrrole-3-carboxamide]: the pEC50 in series [1] is above 7.30. In addition, the CC50 at 7 days in series [2] lay within 5 to 30 µM.

Values taken from patent US20190375708A1 (VenatoRx Pharmaceuticals, Inc., priority 2018, published 2019).
